The source of these data is a melting point compilation (Tetko et al.; mined from patent text by program, amines drawn as free bases though some values may be those of a salt).

Structures are written as SMILES.

In general, melting point refers to the temperature, or range, at which the solid turns liquid. In the case of `ClC(Cl)(Cl)C1Oc2ccc(C=NNc3ccccc3)cc2C(C(Cl)(Cl)Cl)O1` (centres undefined), the melting point lay in the range of 191 to 192 °C.

For `CCOC(=O)c1c(C)cc2nc(CO)n(-c3ccc4c(c3)OCO4)c(=O)c2c1C`, the melting point is 159 to 161 °C.

In the case of `CC(C)c1cccc(C(C)C)c1NC(=O)CNC(c1ccccn1)c1ccccn1`, the melting point lay in the range of 134 to 135 °C.

In the case of `O=C(Nc1ccc(-c2ccccc2)s1)C1CCCCC1`, the melting point was 174 °C.

The compound `Cc1cc(Oc2ncc(C(F)(F)F)cc2Cl)nn1C(=O)Nc1ccc(Cl)c(Cl)c1` came in with a melting point of 150 to 152 °C.

On to `COC(=O)C1=C(C#N)NC(C)=C(C(=O)OCC(C)C)C1c1ccccc1C#N` (centres undefined), for which the melting point lay within 196 to 198 °C.

In turn, `Cn1cccc1-c1nc2cc(Cl)cc(CCc3ccccn3)c2o1` registered a melting point of 100 to 101 °C.

In turn, `COC(=O)COc1ccc(Cl)cc1CC1CNC(=O)CN(S(=O)(=O)c2ccc(Cl)cc2)C1=O` (centres undefined) registered a melting point of 138 to 140 °C.

As for `CCOC(=O)N(c1ccc(Cl)cc1)c1ccccc1-n1nc(C(=O)O)nc1CCl`, the melting point lay within 190 to 192 °C.

`CCOC(=O)c1c(C)nc(-c2ccccc2)nc1-c1cc([N+](=O)[O-])ccc1SC` yielded a melting point of 125 to 126 °C.

`COc1ccc(C(O)c2cccc3c2ccn3S(=O)(=O)c2ccc(C)cc2)cc1` (centres undefined) returned a melting point of 90 °C.

In turn, `CN1CCC(c2c[nH]c3ccc(SCc4ccccc4)cc23)CC1` came in with a melting point of 138 to 141 °C.

Turning to `CCCc1c(OCC(O)COc2ccc(CC(=O)O)cc2Br)ccc(C(C)=O)c1O` (centres undefined), the melting point was 84 °C.

Turning to `O=C(O)CC(NS(=O)(=O)c1c(Cl)cc(Cl)cc1Cl)c1ccccc1` (centres undefined), the melting point was in the range of 218 to 219 °C.

`CCn1cncc1/C=C/c1cn(-c2ccccc2)nc1OCc1ccc(OCc2nc(-c3ccco3)oc2C)c(OC)c1` yielded a melting point of 130 to 132 °C.

As to `CSCc1cn(C)c2c(Cl)cccc2c1=O`, the melting point was 146 to 148 °C.

The compound `Cc1ccc(CC(C)(C)C(=O)C=CN(C)C)cc1` displayed a melting point of 74 to 76 °C.

Compound `CC(=O)Nc1ccc(F)cc1S(=O)(=O)CC#N` displayed a melting point of 154 to 157 °C.

In the case of `CN(C)Cc1cc(Cc2ccccc2)c(O)c(Cc2ccccc2)c1`, the melting point was in the range of 112 to 114 °C.

For the compound `Cc1c(Cl)cccc1S(=O)(=O)Nc1nc(CC(=O)Oc2ccccc2)cs1`, the melting point is 189 °C.

Consider `CS(=O)(=O)Nc1cc(NC(=O)CN)c([N+](=O)[O-])cc1Oc1ccccc1`, for which the melting point lay within 208 to 210 °C.

The compound `C#CCOC(=O)C1=C(C)N2CCNC2=C(C(=O)OCC)C1c1cccc([N+](=O)[O-])c1` (centres undefined) displayed a melting point of 153 °C.

`CC(=O)C1=CCC2C3CCC4CC5OC5CC4(C)C3C(=O)CC12C` (centres undefined): the melting point was 154 to 156 °C.

On to `CC1C(=O)NN(c2cc(Cl)cc(Cl)c2)C1=O` (centres undefined), for which the melting point was in the range of 95 to 100 °C.

The compound `Nc1ccc(-n2ccn(CCCC3CCCCC3)c2=O)cc1` gave a melting point of 83 to 85 °C.

The compound `OCCC#Cc1ncccn1` displayed a melting point of 58 to 64 °C.

`CCc1nn(C(=O)OC(C)(C)C)c2cc(-c3ccc4nnn(Cc5ccc6ncccc6c5)c4n3)ccc12` showed a melting point of 185 to 188 °C.

`COC(=O)c1ccc(OC2CCOC2=O)c([N+](=O)[O-])c1` (centres undefined): the melting point is 99 to 101 °C.

`COc1cc(C=O)cc(-c2cc3c(cc2F)c(=O)c(C(=O)O)cn3C2CC2)c1OC` came in with a melting point above 230 °C.

`CC1=NC(=NOC(=O)NC2CC2)SC1(C)C`: the melting point was in the range of 86 to 89 °C.

Consider `CCC1(C(=O)O)c2ccccc2Oc2ccccc21`, for which the melting point lay in the range of 175 to 176 °C.

`Cc1cc(CO)cc(Oc2nc(Cl)nc(Cl)c2C(C)C)c1` registered a melting point of 140 to 141 °C.

`CC(=O)C1=C(O)C(=C(C)Nc2ccccc2)C(=O)OC1=O` registered a melting point of 184 to 186 °C.

Consider `CN(Cc1ccc(NC(=O)C2=Cc3cc(-c4ccc5c(c4)OCO5)ccc3S(=O)(=O)CC2)cc1)C1CCC(=O)CC1`, for which the melting point fell in the range of 219 to 223 °C.

In the case of `O=Cc1ccc(C=CC(=O)N2CCc3c([nH]c4ccccc34)C2c2ccc3c(c2)CCO3)cc1` (centres undefined), the melting point was 175 °C.

On to `CC(=O)Nc1cc(Oc2ccc3c(c2)CCN3C(=O)Nc2ccc(OC(C)(C)C(=O)O)c(C(F)(F)F)c2)ncn1`, for which the melting point fell in the range of 219 to 220 °C.

`COc1cccc2c1CCC1C(=O)OC(=O)C21` (centres undefined): the melting point lay within 138 to 140 °C.

In the case of `N#Cc1nn(-c2c(Cl)cc(C(F)(F)F)cc2Cl)c(N)c1-c1cccc(N)c1`, the melting point is 187 °C.

On to `CC(=O)c1cc(I)c2c(c1)C=CC(C)(C)O2`, for which the melting point came to 102 °C.

Regarding `CNc1nc(-c2ccc(O)c(F)c2)cc2c(OC)cccc12`, the melting point lay in the range of 185 to 187 °C.

`Cc1ccc(NC(=O)c2cccnc2Oc2cccc(Cl)c2)cc1` had a melting point of 140 to 143 °C.

As for `CCOC(=O)c1ccc(-c2c[nH]c(-c3ccc4c(c3)C(C)(C)CCC4(C)C)n2)cc1`, the melting point is 186 to 188 °C.

In turn, `CC(C)Oc1nsc(NC(=O)C(C)C)c1C#N` registered a melting point of 224 °C.

`CCCCCCCCCCNC(=O)c1cc(N)cc(C(=O)NCCCCCCCCCC)c1`: the melting point is 188 to 189 °C.

The compound `Cc1ccc2cccc(OCc3c(Cl)ccc(N(C)C(=O)CN4C(=O)c5ccccc5C4=O)c3Cl)c2n1` had a melting point of 204 °C.

Consider `COC(=O)c1cc(Cl)c(NC(C)=O)cc1OC(C)=O`, for which the melting point lay in the range of 134 to 136 °C.

Compound `COC1CC2(C)C(CCC3C4CCC(C(=O)COC(C)=O)C4(C)CC(=O)C32)CC1O` (centres undefined) returned a melting point of 177 to 180 °C.

Consider `CC(=O)C1CC(c2ccccc2)CCC1=O` (centres undefined), for which the melting point was in the range of 53 to 54 °C.

`N=c1[nH]c2ccc(Cl)cc2c2nc(-c3ccc(Br)o3)nn12` yielded a melting point of 282 to 283 °C.

For `O=C(Nc1ccc(OC(F)(F)C(F)F)cc1)N1CC(c2ccccc2)C(c2ccc(OC(F)F)cc2)=N1` (centres undefined), the melting point fell in the range of 132 to 135 °C.

Consider `CCOC(=O)c1ccc(OCc2ccc(F)cc2)cc1`, for which the melting point fell in the range of 60 to 62 °C.

As to `O=C(SCC1C(=O)OCC1c1ccc(Cl)cc1)c1ccccc1` (centres undefined), the melting point was 99 to 101 °C.

Consider `Cc1cc(C(=O)O)c(NC(=O)Nc2ccc(Oc3ccccc3)cc2)s1`, for which the melting point was in the range of 213 to 215 °C.

In turn, `CCn1ncc2c1NC(=O)CC2C(F)(F)F` (centres undefined) had a melting point of 129 to 130 °C.

Compound `CCOc1ccc(-c2ncccc2S(=O)(=O)Nc2ncc(C)nc2OC)cc1` gave a melting point of 162 to 163 °C.

For `C#Cc1ccc(-c2c(C)nnc(Cl)c2-c2c(F)cc(F)cc2F)cc1`, the melting point lay in the range of 174 to 175 °C.

As to `O=c1[nH]c2ncc(-c3cccc(-c4nc[nH]n4)c3)nc2n1CC1CCCCC1`, the melting point lay in the range of 305 to 307 °C.

With `CCCc1nc2c(N)nc3cc(OCc4ccccc4OC)ccc3c2n1CC(C)C`, the melting point was in the range of 205 to 206 °C.

As for `O=C1C(=O)N2CCCc3cccc1c32`, the melting point worked out at 199 °C.

On to `CC1(C(=O)O)CCCc2cc(C3CCCCC3)c(Cl)cc21` (centres undefined), for which the melting point is 167 to 168 °C.

Turning to `COc1ccc2c(Cl)c(C(=O)Cl)sc2c1`, the melting point is 120 to 121 °C.

For `Cc1csc2ccc3[nH]c4c(c3c12)CN(Cc1ccccc1)CC4`, the melting point is 93 °C.

In the case of `O=C(c1ccc(OC[C@H](O)CO)cc1)c1ccc([N+](=O)[O-])cc1`, the melting point lay within 104 to 105 °C.

`O=S(=O)(c1ccc(Cl)cc1)N1CCC[C@@H](Nc2nccc(-c3c(-c4cccc(C=NO)c4)nc4sccn34)n2)C1` yielded a melting point of 238 to 240 °C.

In turn, `CCOC(=O)c1cn(C(C)C(=O)c2ccccc2)c2nc(-c3ccccc3)c(C)n2c1=O` (centres undefined) gave a melting point of 177 to 178 °C.

`CC(=O)OCC(C)(CC(C)(C)C)C(=O)O` (centres undefined) displayed a melting point of 89.5 to 90.5 °C.

In turn, `CCOP(=O)(/C=C/c1cn(-c2ccccc2)nc1OCc1ccc(OCc2nc(-c3ccco3)oc2C)c(OC)c1)OCC` registered a melting point of 60 to 63 °C.

For the compound `COc1ccc2c(c1)/C(=C/C#N)CC2`, the melting point lay in the range of 95 to 96 °C.

Regarding `C=C(OCC)c1c(C)nc(C)nc1NCc1ccc(Br)cc1`, the melting point is 111 to 113 °C.

In the case of `CC(Cc1ccc(C2=NNC(=O)CC2)cc1)NCC(O)c1cccc(Cl)c1` (centres undefined), the melting point lay within 49 to 50 °C.

Consider `CCOC(=O)c1ncn2c3ccccc3c(=O)n(C)c12`, for which the melting point was in the range of 211 to 212 °C.

Regarding `Cn1c(=O)ccc2cnc(N)nc21`, the melting point is 237 to 253 °C.

Turning to `CCOC(=O)C(=O)N(CCO)N=Cc1ccccc1`, the melting point lay in the range of 96 to 98 °C.

Consider `CS(=O)(=O)Nc1cc2oc(C#N)c(NC=O)c(=O)c2cc1Oc1ccccc1`, for which the melting point lay within 229 to 230 °C.

Consider `COc1ccc(-c2cc3c(C#N)c(OC)ccc3o2)cc1`, for which the melting point was in the range of 120 to 122 °C.

In the case of `O=C1CCC(N2Cc3c(OCc4ccc(CN5CCOCC5)cc4)cccc3C2=O)C(=O)N1` (centres undefined), the melting point lay in the range of 206 to 208 °C.

For `Oc1ccc(-c2nn(-c3ccc(Br)cc3)c3c(C(F)(F)F)cccc23)cc1`, the melting point fell in the range of 176 to 177 °C.

The compound `Cc1nc2c(cc1C#CCO)c(=O)c(C(=O)NCc1ccc(Cl)cc1)cn2C` showed a melting point of 217 to 218 °C.

Turning to `C1=CC2=Nc3ccccc3OCN2C=C1`, the melting point lay within 125 to 127 °C.

Compound `ONCc1ccccc1Cl` showed a melting point of 71 to 73 °C.

Consider `CSC(=N[N+](=O)[O-])NCc1ccccc1`, for which the melting point is 77 to 80 °C.

As for `O=C(O)C(=O)Nc1cc(Cl)cc(NC(=O)C(=O)O)n1`, the melting point is above 320 °C.

Take `CCOC(=O)Nc1csc2cc(OCc3ccccc3)ccc12`: the melting point fell in the range of 129 to 130 °C.

On to `CNc1cc(NS(=O)(=O)c2ccccc2)ccc1[N+](=O)[O-]`, for which the melting point is 172 to 174 °C.

Compound `CC(C)N(CCN1C(=O)C(=O)c2cc(Cl)ccc21)C(C)C` displayed a melting point of 99 to 101 °C.

On to `CC(C)(C)c1nc(CO)c[nH]1`, for which the melting point lay within 212 to 221 °C.

Compound `COC(=O)C(=O)c1cc(F)c(OCCOc2ccc3ccccc3c2)c(F)c1` displayed a melting point of 114 to 115 °C.

The compound `CC(C)c1ccc(NCc2ccc(N(C)C)cc2)cc1` came in with a melting point of 71 to 73 °C.

In turn, `COc1ccc2nc(SC3CCCc4ccc(O)nc43)[nH]c2c1` (centres undefined) came in with a melting point of 217 to 218 °C.
